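Step 1: Grow cells in 96-well plates. Step 2: Expose to compound for 48 hours at 5 concentrations. Step 3: Interpolate endpoints linearly; if unreached, use highest concentration. GI50: concentration for 50% inhibition of growth.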 The source made the active and inactive calls. Cut-off read from the data, not from the text of the source: active = GI50 up to about 1.1 µM and inactive = higher.
Tests used:
Experiment in all cases: NCI tumour cell line growth inhibition, 48 h
CCRF-CEM = test system: CCRF-CEM
SK-MEL-28 = test system: SK-MEL-28
UACC-62 = test system: UACC-62
SF-539 = test system: SF-539
IGROV-1 = test system: IGROV-1
TK-10 = test system: TK-10
M14 = test system: M14
SK-OV-3 = test system: SK-OV-3
SNB-75 = test system: SNB-75
U-251 = test system: U-251
OVCAR-8 = test system: OVCAR-8
SF-295 = test system: SF-295
NCI-H522 = test system: NCI-H522
HT-29 = test system: HT-29
UO-31 = test system: UO-31
SF-268 = test system: SF-268
SR = test system: SR

Measured: GI50

CC12CP(=O)(c3ccccc3)CC1C2(Cl)Cl (configuration not stated)
inactive: CCRF-CEM > 100 µM | SK-MEL-28 > 100 µM | UACC-62 > 100 µM | SF-539 > 100 µM | IGROV-1 > 100 µM | TK-10 > 100 µM | M14 > 100 µM | SK-OV-3 > 100 µM | SNB-75 28.1 µM | U-251 > 100 µM | OVCAR-8 > 100 µM | SF-295 > 100 µM | NCI-H522 > 100 µM | HT-29 > 100 µM

O=C(Nc1ccccc1)n1cc(-c2ccccn2)c(N2CCOCC2)n1
inactive: UO-31 11.8 µM | CCRF-CEM 5.48 µM | UACC-62 5.62 µM | SF-268 > 100 µM | SF-539 6.73 µM | IGROV-1 12 µM | TK-10 > 100 µM | M14 8.91 µM | SK-OV-3 9.84 µM | SNB-75 3.78 µM | U-251 4.94 µM | OVCAR-8 46 µM | SF-295 1.9 µM | NCI-H522 2.56 µM | HT-29 2.69 µM

O=C(COc1ccc(Cl)cc1)N1CCN(C(=O)COc2ccc(Cl)cc2)c2ccccc21
inactive: UO-31 7.23 µM | CCRF-CEM 34 µM | SK-MEL-28 21.2 µM | SF-268 41.6 µM | SF-539 > 100 µM | IGROV-1 50.7 µM | TK-10 33.4 µM | SK-OV-3 81.5 µM | SNB-75 45.6 µM | U-251 74 µM | OVCAR-8 53.2 µM | SF-295 54.5 µM | NCI-H522 22.5 µM | HT-29 50.5 µM

N#CC1(C=O)c2ccccc2C=CN1C(=O)c1ccccc1 (configuration not stated)
inactive: UO-31 33.3 µM | CCRF-CEM 17.6 µM | SK-MEL-28 > 100 µM | UACC-62 52.5 µM | SF-268 70.3 µM | IGROV-1 26.9 µM | TK-10 63.5 µM | M14 26.8 µM | SNB-75 15.1 µM | U-251 29.6 µM | OVCAR-8 41.8 µM | NCI-H522 27.9 µM | SR 18.5 µM | HT-29 38.2 µM

CCCOCN1COCN/C1=N\C#N
inactive: UO-31 > 100 µM | SK-MEL-28 > 100 µM | UACC-62 > 100 µM | SF-268 39.1 µM | SF-539 > 100 µM | IGROV-1 > 100 µM | TK-10 > 100 µM | M14 > 100 µM | SK-OV-3 > 100 µM | SNB-75 > 100 µM | U-251 21.6 µM | OVCAR-8 > 100 µM | SF-295 > 100 µM | NCI-H522 > 100 µM | HT-29 48.2 µM

COc1ccccc1/N=N/c1c(-c2ccccc2)nn(C(=O)CC(=O)Nc2cccc(C)c2)c1-c1ccccc1
inactive: UO-31 19.7 µM | CCRF-CEM 15.2 µM | SK-MEL-28 > 100 µM | UACC-62 38.8 µM | SF-268 39.4 µM | SF-539 30 µM | IGROV-1 24.7 µM | TK-10 72.1 µM | M14 14.7 µM | SNB-75 11.8 µM | U-251 20 µM | OVCAR-8 31.2 µM | SF-295 28.2 µM | NCI-H522 16.4 µM | HT-29 16.4 µM

CCOC12OC3=C(CC1CC1=C(CCC1=O)O2)C(=O)CC3 (configuration not stated)
inactive: UO-31 > 100 µM | CCRF-CEM > 100 µM | UACC-62 > 100 µM | SF-268 > 100 µM | SF-539 > 100 µM | IGROV-1 > 100 µM | TK-10 > 100 µM | M14 > 100 µM | SK-OV-3 > 100 µM | SNB-75 > 100 µM | U-251 > 100 µM | OVCAR-8 > 100 µM | SF-295 > 100 µM | NCI-H522 > 100 µM | SR > 100 µM | HT-29 > 100 µM

Cc1ccc(Sc2ccc(C)cc2[N+](=O)[O-])c([N+](=O)[O-])c1
inactive: UO-31 > 100 µM | CCRF-CEM > 100 µM | SK-MEL-28 > 100 µM | UACC-62 > 100 µM | SF-268 > 100 µM | SF-539 > 100 µM | IGROV-1 > 100 µM | TK-10 > 100 µM | M14 > 100 µM | SK-OV-3 > 100 µM | SNB-75 46.5 µM | U-251 > 100 µM | OVCAR-8 > 100 µM | SF-295 > 100 µM | NCI-H522 > 100 µM | HT-29 > 10 µM

N#CC(c1ccc(Cl)cc1)c1cccc(Cl)n1 (configuration not stated)
inactive: UO-31 28.1 µM | CCRF-CEM > 100 µM | SK-MEL-28 86.9 µM | UACC-62 42.6 µM | SF-268 38.4 µM | TK-10 33.2 µM | M14 79.8 µM | SK-OV-3 42.1 µM | SNB-75 21.5 µM | U-251 97.9 µM | OVCAR-8 > 100 µM | SF-295 61.9 µM | NCI-H522 22.4 µM | SR 45.1 µM | HT-29 83.6 µM

CC[C@H]1[C@@H](C)C=C[C@@H](C)N1S(=O)(=O)c1ccc(C)cc1
inactive: UO-31 5.26 µM | CCRF-CEM > 100 µM | SK-MEL-28 > 100 µM | UACC-62 97.7 µM | SF-268 75 µM | SF-539 > 100 µM | M14 > 100 µM | SK-OV-3 > 100 µM | SNB-75 > 100 µM | U-251 > 100 µM | OVCAR-8 > 100 µM | SF-295 95.9 µM | NCI-H522 30.3 µM | SR 66.5 µM | HT-29 > 100 µM

COc1ccc([C@@H]2OC(=O)C3C2C(=O)O[C@H]3c2ccc(OC)cc2)cc1 (some centres not stated)
inactive: UO-31 > 100 µM | CCRF-CEM > 100 µM | SK-MEL-28 > 100 µM | UACC-62 > 100 µM | SF-539 > 100 µM | IGROV-1 > 100 µM | SK-OV-3 > 100 µM | SNB-75 > 100 µM | U-251 > 100 µM | OVCAR-8 > 100 µM | SF-295 > 100 µM | SR > 100 µM | HT-29 > 100 µM

NC(=S)N/N=C/c1cn(CCCl)c2ccccc12
inactive: UO-31 16.9 µM | CCRF-CEM 20.7 µM | SK-MEL-28 63.5 µM | UACC-62 30.2 µM | SF-268 > 100 µM | IGROV-1 > 100 µM | TK-10 90.2 µM | M14 56.4 µM | SK-OV-3 > 100 µM | SNB-75 12.9 µM | OVCAR-8 57.3 µM | SF-295 13.6 µM | NCI-H522 11.9 µM | SR 11 µM | HT-29 23.9 µM

O=C(C=P(c1ccccc1)(c1ccccc1)c1ccccc1)CC(=S)CC(=O)C=P(c1ccccc1)(c1ccccc1)c1ccccc1
inactive: UO-31 29.3 µM | CCRF-CEM 3.24 µM | SK-MEL-28 8.22 µM | UACC-62 4.31 µM | SF-268 5.19 µM | SF-539 4.09 µM | IGROV-1 4.66 µM | TK-10 7.96 µM | M14 4.12 µM | SK-OV-3 3.95 µM | U-251 2.29 µM | OVCAR-8 3.56 µM | SF-295 3.16 µM | NCI-H522 2.74 µM | HT-29 4.14 µM

CCOC(=O)[C-]([N+]#N)[Si](C)(C)C
inactive: SK-MEL-28 18.5 µM | UACC-62 72.4 µM | SF-268 21.6 µM | SF-539 > 100 µM | IGROV-1 > 100 µM | TK-10 > 100 µM | SNB-75 > 100 µM | U-251 24.2 µM | OVCAR-8 > 100 µM | SF-295 > 100 µM | HT-29 > 100 µM

CN1C/C(=C\c2ccccc2)C2=NN(C(N)=S)[C@H](c3ccccc3)[C@@H]2C1
inactive: UO-31 36.9 µM | CCRF-CEM 45.6 µM | SK-MEL-28 > 100 µM | UACC-62 74.6 µM | SF-268 > 100 µM | SF-539 > 100 µM | IGROV-1 > 100 µM | TK-10 > 100 µM | M14 95.1 µM | SK-OV-3 > 100 µM | U-251 > 100 µM | SF-295 87.9 µM | NCI-H522 40 µM | SR > 100 µM | HT-29 32.9 µM

C[N+](C)(C)CC(=O)N/N=C(\CCC(=O)NCCc1ccccc1)CC(=O)c1ccccc1
inactive: UO-31 > 100 µM | CCRF-CEM > 100 µM | UACC-62 > 100 µM | SF-268 > 100 µM | SF-539 > 100 µM | IGROV-1 > 100 µM | TK-10 > 100 µM | M14 > 100 µM | SK-OV-3 > 100 µM | U-251 > 100 µM | OVCAR-8 > 100 µM | SF-295 > 100 µM | NCI-H522 > 100 µM | HT-29 > 100 µM

c1ccc(COCC2OC3c4ccccc4COC3C2OCc2ccccc2)cc1 (configuration not stated)
inactive: UO-31 > 100 µM | SK-MEL-28 > 100 µM | UACC-62 52.7 µM | SF-539 > 100 µM | IGROV-1 > 100 µM | TK-10 > 100 µM | M14 > 100 µM | SK-OV-3 > 100 µM | SNB-75 39.6 µM | U-251 > 100 µM | OVCAR-8 > 100 µM | SF-295 77.3 µM | SR 57.8 µM | HT-29 99.1 µM

O=C(CSc1nnc(Cc2ccccc2)o1)Nc1cccc([N+](=O)[O-])c1
inactive: UO-31 > 100 µM | CCRF-CEM > 100 µM | SK-MEL-28 > 100 µM | UACC-62 > 100 µM | SF-268 > 100 µM | SF-539 > 100 µM | IGROV-1 > 100 µM | TK-10 > 100 µM | M14 > 100 µM | SK-OV-3 > 100 µM | SNB-75 58.5 µM | U-251 > 100 µM | OVCAR-8 > 100 µM | SF-295 > 100 µM | NCI-H522 > 100 µM | HT-29 > 100 µM
